Results as given in patent publication US20180346446A1, “IRE1 SMALL MOLECULE INHIBITORS” (QUENTIS THERAPEUTICS, INC., priority 2017, published 2018).

How the values were obtained:
IRE1a [1] = target: T1, IRE1a (Homo sapiens, UniProt O75460); test: In vitro FRET assay (XBP1 RNA probe cleavage by IRE1a); format: biochemical; parameters: purchased SignalChem; conditions: 2 nM IRE1a protein
293T cells = test: Growth assay (cytotoxicity); format: cell-based; conditions: 2 day incubation
Method: A growth assay was performed to evaluate the compounds disclosed herein for cytotoxicity. Briefly, 5,000,000 293T cells were resuspended in 18 mL of cDMEM for a final concentration of 277,777 cells/mL. […] In a separate 96 well dilution plate, 199 uL cDMEM and 1 uL of DMSO or any one of the compounds disclosed herein (shown as Test Compound 1, 2, 3, 4, 5, or 6 below) were added to wells A4, A8, C4, C8, E4, E8, G4, and G8. 133.3 uL cDMEM was added to wells 1, 2, 3, 5, 6, and 7 in rows A, C, E and G of the dilution plate. Compounds were serially diluted leftwards in threefold dilutions (66.7 uL into 133.3 uL cDMEM). 20 uL of each dilution was transferred in duplicate (duplicates in vertical paired wells) to the cells plated in the 96-well plate shown in Table 5, to the total concentrations shown below. 200 uL cDMEM was added to media wells (wells G5-H8). The plate was then placed in a humidified chamber for a 2 day incubation, and then photographed (media was more yellow in wells with potent cell growth). Absorbance was then measured at about […] (lower for more acidic media) and about […] (higher for more acidic media).

IRE1a [2] = target: T1, IRE1a; test: IRE1a Endoribonuclease Nanoluciferase Assay (XBP1 luciferase reporter in 293T cells); format: cell-based; conditions: 293T cells transfected with XBP1 luciferase reporter, ER stressors +/- inhibitors
Method: Compounds disclosed herein were assessed for disruption of IRE1 signaling using a IRE1a Endoribonuclease Nanoluciferase Assay. Briefly, 2.5×10^6 293T cells were seeded in a 10 cm^2 tissue culture plate. About 24 hours later, the cells were transfected with Effectene. In a 15 mL Tube, the following was added: 2 ug XBP1 luciferase reporter plasmid (PGK-Luc2-P2A-XBP1u-Nanoluciferase-PEST); 300 ul EC buffer; and 16 ul Enhancer, followed by incubation at room temp for 5 minutes. Next, 60 ul Effectene (Qiagen 301427) was added, followed by incubation at room temperature for 10 minutes. 2.6 mL cDMEM media was added. Old media was aspirated from the cells, followed by addition of 7 mL fresh media. Full transfection mixture was added dropwise to cells. Cells were incubated for 6 hours, followed by trypsinization, centrifugation and resuspension in 11 mL media. 100 uL of cells were plated per a well in a 96 well plate. A day later, ER stressors of choice +/− inhibitors were added. To harvest, media was aspirated from cells completely, then 50 uL 1× passive lysis buffer (Promega: E1941) was added per well and put on shaker (300 rpm) for 30 minutes at room temperature. Cells were centrifuged, and 15 uL sample per well was added to a new, opaque white 384 well plate (Corning 3570). 15 uL OneGlo (nanoluciferase kit, Promega N1630) was added. Plates were spun down, placed on shaker (300 rpm) for 10 minutes. Plates were read on luminometer, 1000 ms integration time per well. 15 uL Stop and Glo (nanoluciferase kit) was added. Plates were spun down, placed on shaker (300 rpm) for 10 minutes. Plates were read on luminometer, 1000 ms second integration time per well. Recordings are provided below in Table 4.

T1 sequence (O75460 19-977): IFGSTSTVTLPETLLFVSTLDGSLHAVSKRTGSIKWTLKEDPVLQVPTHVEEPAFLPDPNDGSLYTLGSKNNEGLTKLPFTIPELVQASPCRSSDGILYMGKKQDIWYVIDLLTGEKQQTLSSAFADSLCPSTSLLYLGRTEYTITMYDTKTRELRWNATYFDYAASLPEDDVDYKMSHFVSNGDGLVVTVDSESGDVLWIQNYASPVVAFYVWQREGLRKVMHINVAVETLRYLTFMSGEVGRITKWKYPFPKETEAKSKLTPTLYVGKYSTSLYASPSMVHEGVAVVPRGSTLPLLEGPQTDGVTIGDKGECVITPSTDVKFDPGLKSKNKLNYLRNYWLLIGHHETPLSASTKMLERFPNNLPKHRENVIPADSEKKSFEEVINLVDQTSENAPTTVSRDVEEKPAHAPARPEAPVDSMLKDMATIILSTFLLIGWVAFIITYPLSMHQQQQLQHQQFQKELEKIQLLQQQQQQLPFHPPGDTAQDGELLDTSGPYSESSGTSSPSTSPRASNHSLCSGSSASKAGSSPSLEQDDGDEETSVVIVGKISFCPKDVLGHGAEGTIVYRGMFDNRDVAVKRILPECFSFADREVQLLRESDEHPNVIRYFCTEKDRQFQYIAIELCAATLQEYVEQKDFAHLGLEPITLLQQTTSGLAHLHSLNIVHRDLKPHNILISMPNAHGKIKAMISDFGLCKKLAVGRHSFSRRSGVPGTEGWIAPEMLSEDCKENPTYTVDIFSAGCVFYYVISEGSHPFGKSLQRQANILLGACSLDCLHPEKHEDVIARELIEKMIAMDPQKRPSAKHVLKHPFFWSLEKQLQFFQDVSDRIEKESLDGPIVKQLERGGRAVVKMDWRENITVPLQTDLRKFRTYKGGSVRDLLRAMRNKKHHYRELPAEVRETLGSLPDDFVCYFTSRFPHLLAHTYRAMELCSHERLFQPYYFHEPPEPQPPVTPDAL

| Molecule | IC50 (IRE1a [1]) | % Growth at 0.185 uM (293T cells) | % Growth at 0.5556 uM (293T cells) | % Growth at 1.667 uM (293T cells) | % Growth at 5 uM (293T cells) | EC50 (IRE1a [2]) |
| --- | --- | --- | --- | --- | --- | --- |
| CCc1cc(-c2ccc(NS(=O)(=O)c3ccccc3Cl)cc2)cc2cnc(N[C@H]3CC[C@H](N)CC3)nc12.O=CO [18; Formic Acid] | ≤ 5 nM | D (D: >75% to ≤100%) | D (D: >75% to ≤100%) | C (C: >50% to ≤75%) | A (A: ≤25%) | ≤ 5 nM |
| CCc1cc(-c2ccc(NS(=O)(=O)c3ccccc3Cl)cc2OC)cc2cnc(N[C@H]3CC[C@H](N)CC3)nc12.O=CO [19; Formic Acid] | ≤ 5 nM | D (D: >75% to ≤100%) | D (D: >75% to ≤100%) | C (C: >50% to ≤75%) | A (A: ≤25%) | ≤ 5 nM |
| CCc1cc(-c2ncc(NS(=O)(=O)c3ccccc3Cl)cc2C)cc2cnc(N[C@H]3CC[C@H](N)CC3)nc12.O=CO [20; Formic Acid] | ≤ 5 nM | D (D: >75% to ≤100%) | D (D: >75% to ≤100%) | D (D: >75% to ≤100%) | C (C: >50% to ≤75%) | 50 to 100 nM |
| CCc1cc(-c2cc(F)c(NS(=O)(=O)c3ccccc3Cl)cc2C)cc2cnc(N[C@H]3CC[C@H](N)CC3)nc12.O=CO [21; Formic Acid] | ≤ 5 nM | D (D: >75% to ≤100%) | D (D: >75% to ≤100%) | D (D: >75% to ≤100%) | B (B: >25% to ≤50%) | 5 to 50 nM |
| CCc1cc(-c2ccc(NS(=O)(=O)c3ccccc3Cl)c(C)c2C)cc2cnc(N[C@H]3CC[C@H](N)CC3)nc12.O=CO [22; Formic Acid] | 5 to 50 nM | D (D: >75% to ≤100%) | D (D: >75% to ≤100%) | D (D: >75% to ≤100%) | A (A: ≤25%) | > 100 nM |
| CCc1cc(-c2cnc(NS(=O)(=O)c3ccccc3Cl)nc2C)cc2cnc(N[C@H]3CC[C@H](N)CC3)nc12.O=CO [23; Formic Acid] | ≤ 5 nM | D (D: >75% to ≤100%) | C (C: >50% to ≤75%) | C (C: >50% to ≤75%) | D (D: >75% to ≤100%) | ≤ 5 nM |
| CCc1cc(-c2cnc(NS(=O)(=O)c3ccccc3Cl)cn2)cc2cnc(N[C@H]3CC[C@H](N)CC3)nc12.O=CO [25; Formic Acid] | ≤ 5 nM | D (D: >75% to ≤100%) | D (D: >75% to ≤100%) | D (D: >75% to ≤100%) | D (D: >75% to ≤100%) | ≤ 5 nM |
| CCc1cc(-c2ccc(NS(=O)(=O)c3ccccc3Cl)nc2)cc2cnc(N[C@H]3CC[C@H](N)CC3)nc12.O=CO [27; Formic Acid] | ≤ 5 nM | D (D: >75% to ≤100%) | D (D: >75% to ≤100%) | C (C: >50% to ≤75%) | B (B: >25% to ≤50%) | ≤ 5 nM |
| CCc1cc(-c2ccc(NS(=O)(=O)c3ccccc3Cl)cn2)cc2cnc(N[C@H]3CC[C@H](N)CC3)nc12.O=CO [28; Formic Acid] | ≤ 5 nM | D (D: >75% to ≤100%) | D (D: >75% to ≤100%) | C (C: >50% to ≤75%) | B (B: >25% to ≤50%) | ≤ 5 nM |
| CCc1cc(-c2cc(NS(=O)(=O)c3ccccc3Cl)n[nH]2)cc2cnc(N[C@H]3CC[C@H](N)CC3)nc12.O=CO [29; Formic Acid] | ≤ 5 nM | D (D: >75% to ≤100%) | D (D: >75% to ≤100%) | D (D: >75% to ≤100%) | D (D: >75% to ≤100%) | > 100 nM |
| CCc1cc(-c2ccc(NS(=O)(=O)c3ccccc3Cl)nn2)cc2cnc(N[C@H]3CC[C@H](N)CC3)nc12.O=CO [32; Formic Acid] | ≤ 5 nM | D (D: >75% to ≤100%) | D (D: >75% to ≤100%) | C (C: >50% to ≤75%) | B (B: >25% to ≤50%) | ≤ 5 nM |
| CCc1cc(-c2ncc(NS(=O)(=O)c3ccccc3Cl)cn2)cc2cnc(N[C@H]3CC[C@H](N)CC3)nc12.O=CO [33; Formic Acid] | ≤ 5 nM | D (D: >75% to ≤100%) | D (D: >75% to ≤100%) | D (D: >75% to ≤100%) | C (C: >50% to ≤75%) | ≤ 5 nM |
| CCc1cc(NS(=O)(=O)c2ccccc2Cl)ccc1-c1cc(CC)c2nc(N[C@H]3CC[C@H](N)CC3)ncc2c1.O=CO [34; Formic Acid] | ≤ 5 nM | D (D: >75% to ≤100%) | D (D: >75% to ≤100%) | D (D: >75% to ≤100%) | A (A: ≤25%) | 5 to 50 nM |
| Cc1cc(NS(=O)(=O)c2ccccc2Cl)ccc1-c1ccc2nc(N[C@H]3CC[C@H](N)CC3)ncc2c1 [Compound 2, N-(4-(2-(((1r,4r)-4-aminocyclohexyl)amino)quinazolin-6-yl)-3-methylphenyl)-2-chlorobenzenesulfonamide] | ≤ 5 nM | – | – | – | – | > 100 nM |
| CCc1cc(-c2cnc(NS(=O)(=O)c3ccccc3Cl)cc2C)cc2cnc(N[C@H]3CC[C@H](N)CC3)nc12 [Compound 4, N-(5-(2-(((1r,4r)-4-aminocyclohexyl)amino)-8-ethylquinazolin-6-yl)-4-methylpyridin-2-yl)-2-chlorobenzenesulfonamide] | ≤ 5 nM | – | – | – | – | 50 to 100 nM |
| Cc1cc(NS(=O)(=O)c2ccccc2Cl)ncc1-c1ccc2nc(N[C@H]3CC[C@H](N)CC3)ncc2c1 [Compound 5, N-(5-(2-(((1r,4r)-4-aminocyclohexyl)amino)quinazolin-6-yl)-4-methylpyridin-2-yl)-2-chlorobenzenesulfonamide] | ≤ 5 nM | – | – | – | – | > 100 nM |
| CCc1cc(-c2cc(NS(=O)(=O)c3ccccc3Cl)nn2C)cc2cnc(N[C@H]3CC[C@H](N)CC3)nc12 [Compound 6, N-(5-(2-(((1r,4r)-4-aminocyclohexyl)amino)-8-ethylquinazolin-6-yl)-1-methyl-1H-pyrazol-3-yl)-2-chlorobenzenesulfonamide] | ≤ 5 nM | – | – | – | – | 50 to 100 nM |
| N-(4-(2-(((1r,4r)-4-aminocyclohexyl)amino)quinazolin-6-yl)-3-methylphenyl)-3-chlorobenzenesulfonamide [Compound 11] | ≤ 5 nM | – | – | – | – | > 100 nM |
